The assay relates to coronary arteries of pigs. Description: Drug-loaded polymer stent implanted in pig coronary arteries for one month; morphometric analysis of late loss and percent stenosis. Format: in vivo, pig (Domestic Farm Swine). Conditions: overall conclusion from the pig coronary artery stent studies. As for the experimental part: Boundaries of a selected coronary artery segment were detected automatically from optically magnified and video-digitized regions of interest. The catheter used for insertion of the stents was used as a scaling device to determine the dimensions of the artery at the site of implantation. The original vessel diameter at the time of implantation was determined.
The catheter used for insertion of the stents was used as a scaling device to determine the dimensions of the artery at the site of implantation. The original vessel diameter at the time of implantation was determined.

Turning to `CC[C@@]1(O)C(=O)OCc2c1cc1n(c2=O)Cc2cc3ccccc3nc2-1` [camptothecin, Camptothecin], the “inhibition of undesirable cell growth associated with vessel injury during coronary angioplasty and stent insertion” value is listed as “effective to inhibit the undesirable cell growth”.

For the origin of these results see patent US20020004679A1, “Topoisomerase inhibitors for prevention of restenosis” (Quanam Medical Corporation, priority 1998, published 2002).
